39 compounds from US10688093B2, “Methods, compositions, and uses of novel Fyn kinase inhibitors” (priority 2015, dated 2020) can be followed below.

The structures appear in SMILES notation.

Chain of full-length recombinant human FYN A (P06241 whole entry): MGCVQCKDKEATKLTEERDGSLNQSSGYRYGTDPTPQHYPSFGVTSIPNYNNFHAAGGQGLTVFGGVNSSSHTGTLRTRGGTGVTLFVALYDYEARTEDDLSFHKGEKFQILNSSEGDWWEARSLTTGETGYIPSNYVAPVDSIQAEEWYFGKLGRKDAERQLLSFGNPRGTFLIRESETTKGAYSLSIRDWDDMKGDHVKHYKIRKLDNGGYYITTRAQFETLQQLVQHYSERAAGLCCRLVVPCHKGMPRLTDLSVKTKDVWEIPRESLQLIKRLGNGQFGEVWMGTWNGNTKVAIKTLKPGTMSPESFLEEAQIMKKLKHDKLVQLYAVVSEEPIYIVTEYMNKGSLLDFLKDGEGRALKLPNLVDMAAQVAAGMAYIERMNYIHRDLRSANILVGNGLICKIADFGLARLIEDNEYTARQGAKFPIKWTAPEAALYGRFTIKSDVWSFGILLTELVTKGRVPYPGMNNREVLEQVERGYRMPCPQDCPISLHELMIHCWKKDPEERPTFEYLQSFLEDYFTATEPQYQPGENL

The target in the assay is full-length recombinant human FYN A (Homo sapiens (Human), UniProt P06241). The assay is described as follows: ADP-Glo Kinase Assay of FYN kinase inhibition. In kind it is biochemical. Particulars: primary screen, initial compounds. In a few lines:
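GST-tagged full-length FYN A (baculovirus, Sf9) at 3 pg preincubated 30 min RT with compound (10-point 3-fold series from 10 μM) in Tris pH 7.5/MgCl2 buffer. 12-mer tyrosine peptide plus 12.5 pmol ATP added, 90 min RT; ADP measured by ADP-Glo luminescence, IC50 from dose-response.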
For orientation: In ADP-Glo the light output rises with the ADP produced.
The term IC50 denotes the concentration at which inhibition is half-maximal. On to `CC(C)CNc1nn2c(-c3cccc(C(=O)N(C)C)c3)cnc2s1` [Compound 258, 3-[2-(isobutylamino)imidazo[2,1-d] [1,3,4]thiadiazol-5-yl]-N,N-dimethyl-benzamide], for which the IC50 came to 283 nM.
As to `CN(C)C(=O)c1cccc(-c2cnc3sc(NCc4ccc(F)cc4)nn23)c1` [Compound 259, 3-[2-[(4-fluorophenyl)methylamino]imidazo[2,1-b] [1,3,4]thiadiazol-5-yl]-N,N-dimethyl-benzamide], the IC50 is 2760 nM.
Then `CC(=O)Nc1cccc(-c2cnc3sc(NCc4cccs4)nn23)c1` [Compound 260, N-[3-[2-(2-thienylmethyl-amino)imidazo [2,1-b] [1,3,4]thiadiazol-5-yl]phenyl] acetamide], with 3930 nM.
The same measure for `Cn1cc(-c2cnc3sc(NCCc4ccc(S(N)(=O)=O)cc4)nn23)cn1` [Compound 261, 4-[2-[[5-(1-methylpyrazol-4-yl)imidazo[2,1-d][1,3,4]thiadiazol-2-yl]amino]ethyl] benzene-sulfonamide]: 2260 nM; for `CN(C)c1cccc(-c2cnc3sc(NC4CCC(O)CC4)nn23)c1` (stereo not drawn) [Compound 262, 4-[[5-[3-(dimethylamino)phenyl]imidazo [2,1-a] [1,3,4]thiadiazol-2-yl]amino] cyclohexanol]: 5790 nM; for `CC(C)CNc1nn2c(-c3cccc(NS(C)(=O)=O)c3)cnc2s1` [Compound 263, N-[3-[2-(isobutylamino)imidazo[2,1-b] [1,3,4]thiadiazol-5-yl]phenyl] methane-sulfonamide]: 7070 nM.
Then `NC(=O)c1cccc(-c2cnc3sc(NCCCO)nn23)c1` [Compound 264, 3-[2-(3-hydroxypropyl-amino)imidazo [2,1-b][1,3,4]thiadiazol-5-yl]benzamide], with 2880 nM.
On to `Oc1ccc(-c2cnc3sc(NC4CCC(O)CC4)nn23)cc1` (stereo not drawn) [Compound 265, 4-[2-[(4-hydroxycyclo-hexyl)amino]imidazo[2,1-b] [1,3,4]thiadiazol-5-yl]phenol], for which the IC50 stood at 3800 nM.
Turning to `NC(=O)c1cccc(-c2cnc3sc(NCc4ccco4)nn23)c1` [Compound 266, 3-[2-(2-furylmethyl-amino)imidazo[2,1-b] [1,3,4]thiadiazol-5-yl]benzamide], the IC50 amounted to 1230 nM.
The same measure for `COc1ccc(-c2cnc3sc(NCCc4ccc(S(N)(=O)=O)cc4)nn23)cn1` [Compound 267, 4-[2-[[5-(6-methoxy-3-pyridyl)imidazo [2,1-b] [1,3,4]thiadiazol-2-yl]amino]ethyl]benzene-sulfonamide]: 2610 nM; for `CN(C)C(=O)c1cccc(-c2cnc3sc(NCC4CCOCC4)nn23)c1` [Compound 268, N,N-dimethyl-3-[2-(tetrahydro-pyran-4-ylmethylamino)imidazo[2,1-b] [1,3,4]thiadiazol-5-yl]benzamide]: 2730 nM.
Take `COc1cncc(-c2cnc3sc(NCC(C)C)nn23)c1` [Compound 270, N-isobutyl-5-(5-methoxy-3-pyridyl)imidazo [2,1-b] [1,3,4]thiadiazol-2-amine]: the IC50 turned out to be 5170 nM.
The same measure for `COc1cncc(-c2cnc3sc(NCc4ccc5c(c4)OCO5)nn23)c1` [Compound 271, N-(1,3-benzodioxol-5-ylmethyl)-5-(5-methoxy-3-pyridyl)imidazo [2,1-b] [1,3,4]thiadiazol-2-amine]: 448 nM; for `COc1cc(-c2cnc3ccc(-c4ccc(NC(C)=O)cc4)nn23)ccc1O` [Compound 272, N-[4-[3-(4-hydroxy-3-methoxy-phenyl)imidazo [1,2-b]pyridazin-6-yl]phenyl] acetamide]: 169 nM.
For `CC(=O)Nc1cccc(-c2cnc3ccc(-c4ccc5c(c4)OCO5)nn23)c1` [Compound 273, N-[3-[6-(1,3-benzodioxol-5-yl)imidazo[1,2-b]pyridazin-3-yl]phenyl] acetamide], the IC50 stood at 1170 nM.
Then `CC(=O)Nc1cccc(-c2ccc3ncc(-c4ccc5c(c4)OCO5)n3n2)c1` [Compound 274, N-[3-[3-(1,3-benzodioxol-5-yl)imidazo[1,2-b]pyridazin-6-yl]phenyl] acetamide], with 1110 nM; and `CC(=O)Nc1cc(-c2ccc(C(=O)N3CCOCC3)cc2)cn2c(-c3cccc(C(C)=O)c3)cnc12` [Compound 275], with 2030 nM.
In the case of `CC(=O)Nc1cccc(-c2cnc3ccc(-c4cccc(OC(F)(F)F)c4)nn23)c1` [Compound 276, N-[3-[6-[3-(trifluoromethoxy)phenyl]imidazo [1,2-b]pyridazin-3-yl]phenyl] acetamide], the half-maximal inhibitory concentration (IC50) worked out at 1500 nM.
Then `COc1ccc(-c2ccc3ncc(-c4cccc(C(C)=O)c4)n3n2)cc1OC` [Compound 277, 1-[3-[6-(3,4-dimethoxyphenyl)imidazo[1,2-b]pyridazin-3-yl]phenyl] ethanone], with 653 nM.
The same measure for `CC(=O)Nc1cccc(-c2cnc3ccc(-c4ccc(S(C)(=O)=O)cc4)nn23)c1` [Compound 278, N-[3-[6-(4-methylsulfonyl-phenyl)imidazo [1,2-b]pyridazin-3-yl]phenyl] acetamide]: 1080 nM.
As for `CC(=O)Nc1cccc(-c2ccc3ncc(-c4cccc(NC(C)=O)c4)n3n2)c1` [Compound 279, N-[3-[3-(3-acetamidophenyl)imidazo[1,2-b]pyridazin-6-yl]phenyl] acetamide], the IC50 came to 553 nM.
With `COc1ccc(CNc2nn3c(-c4cccc(C(=O)N(C)C)c4)cnc3s2)cc1` [Compound 280, 3-[2-[(4-methoxyphenyl)methylamino]imidazo[2,1-b] [1,3,4]thiadiazol-5-yl]-N,N-dimethyl-benzamide], the concentration for half-maximal inhibition (IC50) is 2330 nM.
`CC(=O)Nc1cccc(-c2ccc3ncc(-c4cccc(C(C)=O)c4)n3n2)c1` [Compound 281, N-[3-[3-(3-acetylphenyl)imidazo[1,2-b]pyridazin-6-yl]phenyl] acetamide]: the IC50 stood at 620 nM.
`CC(=O)Nc1cccc(-c2cnc3ccc(-c4ccc(C(N)=O)cc4)nn23)c1` [Compound 282, 4-[3-(3-acetamidophenyl)imidazo[1,2-b]pyridazin-6-yl]benzamide]: the IC50 was 222 nM.
The same measure for `CC(=O)Nc1ccc(-c2ccc3ncc(-c4cccc(O)c4)n3n2)cc1` [Compound 283, N-[4-[3-(3-hydroxyphenyl)imidazo[1,2-b]pyridazin-6-yl]phenyl] acetamide]: 519 nM; for `COc1cc(-c2cnc3sc(NCCc4ccncc4)nn23)cc(OC)c1OC` [Compound 284, N-[2-(4-pyridyl)ethyl]-5-(3,4,5-trimethoxy-phenyl)imidazo [2,1-b][1,3,4] thiadiazol-2-amine]: 1770 nM.
Regarding `CN(C)C(=O)c1cccc(-c2cnc3sc(NCc4ccccc4)nn23)c1` [Compound 286, 3-[2-(benzylamino)imidazo[2,1-d] [1,3,4]thiadiazol-5-yl]-N,N-dimethyl-benzamide], the IC50 worked out at 1510 nM.
In the case of `COc1ccc(-c2cnc3sc(NCc4ccncc4)nn23)cn1` [Compound 287, 5-(6-methoxy-3-pyridyl)-N-(4-pyridylmethyl) imidazo[2,1-b] [1,3,4]thiadiazol-2-amine], the IC50 was determined as 2590 nM.
The same measure for `CC(=O)Nc1cccc(-c2ccc3ncc(-c4cccc(CO)c4)n3n2)c1` [Compound 288, N-[3-[3-[3-(hydroxymethyl)phenyl]imidazo [1,2-b]pyridazin-6-yl]phenyl] acetamide]: 1640 nM; for `CN(C)C(=O)c1cccc(-c2cnc3sc(NCc4ccco4)nn23)c1` [Compound 289, 3-[2-(2-furylmethylamino)imidazo[2,1-p] [1,3,4]thiadiazol-5-yl]-N,N-dimethyl-benzamide]: 2460 nM; for `CC(=O)Nc1cccc(-c2cnc3ccc(-c4ccc(N(C)C)cc4)nn23)c1` [Compound 290, N-[3-[6-(4-dimethylamino-phenyl)imidazo [1,2-a]pyridazin-3-yl]phenyl] acetamide]: 1100 nM.
The same measure for `CC(=O)c1cccc(-c2cnc3c(NC=O)cc(-c4ccc(C(=O)N5CCOCC5)cc4)cn23)c1` [Compound 291, N-[3-(3-acetylphenyl)-6-[4-(morpholine-4-carbonyl)phenyl]imidazo[1,2-a]pyridin-8-yl]formamide]: 2990 nM; for `COc1cc(-c2cnc3ccc(-c4cccc(NC(C)=O)c4)nn23)ccc1O` [Compound 292, N-[3-[3-(4-hydroxy-3-methoxy-phenyl)imidazo [1,2-b]pyridazin-6-yl]phenyl] acetamide]: 102 nM.
The same measure for `CS(=O)(=O)Nc1cccc(-c2ccc3ncc(-c4ccc(CO)cc4)n3n2)c1` [Compound 293, N-[3-[3-[4-(hydroxymethyl)phenyl]imidazo [1,2-b]pyridazin-6-yl]phenyl] methane-sulfonamide]: 830 nM; for `CC(=O)c1cccc(-c2cnc3ccc(-c4cccc(O)c4)nn23)c1` [Compound 294, 1-[3-[6-(3-hydroxyphenyl)imidazo[1,2-a]pyridazin-3-yl]phenyl] ethanone]: 994 nM; for `OCc1ccc(-c2ccc3ncc(-c4cccc(CO)c4)n3n2)cc1` [Compound 295, [4-[3-[3-(hydroxymethyl)phenyl]imidazo [1,2-b]pyridazin-6-yl]phenyl] methanol]: 2230 nM.
For `NC(=O)c1ccc(-c2ccc3ncc(-c4cccc(CO)c4)n3n2)cc1` [Compound 296, 4-[3-[3-(hydroxymethyl)phenyl]imidazo [1,2-b]pyridazin-6-yl]benzamide], the IC50 is 1890 nM.
Then `CN(C)CCNC(=O)c1cccc(-c2cnc3ccc(-c4ccc(CO)cc4)nn23)c1` [Compound 297, N-(2-dimethylamino-ethyl)-3-[6-[4-(hydroxymethyl)phenyl]imidazo [1,2-b]pyridazin-3-yl]benzamide], with 1480 nM; and `NC(=O)c1cccc(-c2ccc3ncc(-c4cccc(O)c4)n3n2)c1` [Compound 298, 3-[3-(3-hydroxyphenyl)imidazo[1,2-b]pyridazin-6-yl]benzamide], with 311 nM.
